Reference: patent US20130165471A1, “2-SUBSTITUTED-THIENOQUINOLONES AND RELATED COMPOUNDS AS ANTI-INFECTIVE AGENTS” (Achillion Pharmaceuticals Inc., priority 2011, published 2013)
≈ marks a conversion by molar mass, not a printed value.

Key:
[1] = test system: fluoroquinolone-resistant S. aureus ATCC 700699; experiment: Minimum inhibitory concentration (MIC) assay, MRSA; type: cell-based; details: Staphylococcus aureus, broth microdilution
Experimental: (§1) The preparation of compounds listed in Table I can be carried out under conditions analogous to those described in the examples above. Those of skill in the art will recognize routine changes in reaction conditions and starting materials needed to produce the listed compounds. For example, compound 5 in Table I, is prepared by the method shown above, except tert-butyl (1-(pyrrolidin-3-yl)ethyl)carbamate, prepared by the method shown in Schoeder, et al., J. Heterocyclic Chem., 29: 1481-1498 (1992), is used as the amine starting material. Compound activity was evaluated in a standard minimal inhibitory concentration assay such as the assay provided in Example 4. Compound cytotoxicity is determined using a standard assay of cytotoxicity such as the assay provided in Example 5. Compounds 10, 14, and 20 of Table I are provided as comparative examples.
(§2) The antimicrobial activity of the compounds of the invention may be evaluated by a number of methods, including the following visual minimum inhibitory concentration (MIC) assay. This assay determines the minimum concentration of compound required to inhibit growth of a bacterial strain.
(§3) Whole-cell antibacterial activity is determined by broth microdilution using conditions recommended by the NCCLS (see National Committee for Clinical Laboratory Standards. 2001. Performance standards for antimicrobial susceptibility testing: 11th informational supplement. Vol. 21, no. 1, M100-S11. National Committee for Clinical Laboratory Standards, Wayne, Pa.). Test compounds are dissolved in DMSO and diluted 1:50 in Mueller-Hinton II broth (Becton-Dickinson) to produce a 256 μg/ml stock solution. In a 96-well microtiter plate, the compound solution is serially two-fold diluted in Mueller-Hinton II broth. After the compounds are diluted, a 50 μl aliquot of the test organism (˜1×10^6 cfu/mL) is added to each well of the microtiter plate. The final test concentrations range from 0.125-128 μg/mL. Inoculated plates are incubated in ambient air at 37° C. for 18 to 24 hours. The organisms selected for testing included laboratory strains S. aureus ATCC 29213 and E. coli ATCC 25922 (strains purchased from American Type Culture Collection, Manassas, Va.) m, S. aureus FQR700699, and Paeruginosa 27853. The minimum inhibitory concentration (MIC) is determined as the lowest concentration of compound that inhibited visible growth of the test organism.

[2] = test system: S. aureus ATCC 29213; experiment: Minimum inhibitory concentration (MIC) assay, MSSA; type: cell-based; details: Staphylococcus aureus, broth microdilution
Experimental: as §1, §2, §3

[3] = test system: Hep2; experiment: Cytotoxicity, cell viability staining with Alamar Blue; type: cell-based, human; set-up: unit not given here; details: Hep2 cells
Experimental: as §1
To determine whether the microcidal effect observed against S. aureus and E. coli is specific to bacterial cells, compounds are screened for cell viability effects on several human cell types.
Optimal cell density is first determined by plating cells in a 96-well plate standard sterile tissue culture plates in 100 μl media, 10% FBS at six cell densities from 500 cells/well to 15,000 cells/well. A cell free well containing only media is used as a control. Cells are incubated at 37° C. in a 5% CO2 incubator for 24 hours. 10% culture volume (10 ul) of Alamar Blue (Biosource, DAL1100, 100 mL) is then added. Cells are incubated at 37° C. in a 5% CO2 incubator and read in a Victor V plate reader, 544 nm excitation, 590 nm emission, at 3, 4, and 24 hours after the addition of Alamar Blue. The cell number vs. change in fluorescence is plotted to determine linearity of signal vs. cell number. The optimal density varies between 500-15,000 cells/well depending on the specific cell type. The optimal density is selected based on the highest number of cells that is still in the linear response range.
Cells are plated at optimal cell density in a standard sterile tissue culture 96 well plate, and incubated at 37° C., O/N in a 5% CO2 incubator. 12 to 48 hours post-plating media is removed. The cells are washed 1 or 2 times with 1×PBS and replaced with fresh media containing the test compound in 1% DMSO. 24 to 72 hours after addition of compound, the media is removed, and the cells washed 1 to 2 times with 1×PBS. Fresh media containing 1/10 volume of Alamar Blue is then added. Plates are incubated 4 hours at 37° C. in a 5% CO2 incubator and read in a Victor V plate reader, 544 nm excitation, 590 nm emission.
Compounds are diluted to 20 micromolar in 1% DMSO and media and screened in duplicate to obtain single concentration cytotoxicity data. Eight concentration points from 0.78 micromolar to 100 micromolar, run in duplicate, are used to determine cytotoxicity CC50 values. Cells with 1% DMSO and media are used as a negative control, compounds having a known CC50 against a particular cell type are used as positive controls.
The change in fluorescence vs. concentration of test compound is plotted to determine the cytotoxicity of the compound.

Row | Compound | MIC [1] [µg/mL] | MIC [2] [µg/mL] | Cytotoxicity Hep2 [3]
1 | COc1c(N2CCCC(CN)C2)c(F)cc2c(=O)c3c(O)c(C(N)=O)sc3n(C3CC3)c12 (stereo not drawn) [Compound 5, 7-(3-(aminomethyl)piperidin-1-yl)-9-cyclopropyl-6-fluoro-3-hydroxy-8-methoxy-4-oxo-4,9-dihydrothieno[2,3-b]quinoline-2-carboxamide] | 2 (≈ 4.34 µM) | 0.5 (≈ 1.09 µM) | 30
2 | COc1c(N2CCCC(=C(F)CN)C2)c(F)cc2c(=O)c3c(O)c(C(C)=O)sc3n(C3CC3)c12 [Compound 6, 2-acetyl-7-(3-(2-amino-1-fluoroethylidene)piperidin-1-yl)-9-cyclopropyl-6-fluoro-3-hydroxy-8-methoxythieno [2,3-b]quinolin-4(9H)-one] | 0.5 (≈ 1.02 µM) | 0.25 (≈ 0.511 µM) | –
3 | COc1c(N2CC[C@H](N)C2)c(F)cc2c(=O)c3c(O)c(C(C)=O)sc3n(C3CC3)c12 [Compound 7, (S)-2-acetyl-7-(3-aminopyrrolidin-1-yl)-9-cyclopropyl-6-fluoro-3-hydroxy-8-methoxythieno [2,3-b]quinolin-4(9H)-one] | 0.25 (≈ 0.579 µM) | 0.13 (≈ 0.301 µM) | 35
4 | COc1c(N2CC[C@@H]([C@H](C)N)C2)c(F)cc2c(=O)c3c(O)c(C(C)=O)sc3n(C3CC3)c12 [Compound 8, 2-acetyl-7-((R)-3-((S)-1-aminoethyl)pyrrolidin-1-yl)-9-cyclopropyl-6-fluoro-3-hydroxy-8-methoxythieno [2,3-b]quinolin-4(9H)-one] | 0.13 (≈ 0.283 µM) | 0.03 (≈ 0.0653 µM) | 9
5 | COc1c(N2CCC(CN)CC2)c(F)cc2c(=O)c3c(O)c(C(C)=O)sc3n(C3CC3)c12 [Compound 9, 2-acetyl-7-(4-(aminomethyl)piperidin-1-yl)-9-cyclopropyl-6-fluoro-3-hydroxy-8-methoxythieno[2,3-b] quinolin-4(9H)-one] | 1 (≈ 2.18 µM) | 0.25 (≈ 0.544 µM) | 42
6 | COc1c(N2CC[C@@H](CN)C2)c(F)cc2c(=O)c3c(O)csc3n(C3CC3)c12 [Compound 10, (S)-7-(3-(aminomethyl)pyrrolidin-1-yl)-9-cyclopropyl-6-fluoro-3-hydroxy-8-methoxythieno[2,3-b] quinolin-4(9H)-one] | – | 4 (≈ 9.91 µM) | 24
7 | COc1c(N2CC[C@@H](CNC(C)=O)C2)c(F)cc2c(=O)c3c(O)c(C(C)=O)sc3n(C3CC3)c12 [Compound 11, (S)-N-((1-(2-acetyl-9-cyclopropyl-6-fluoro-3-hydroxy-8-methoxy-4-oxo-4,9-dihydrothieno [2,3-b]quinolin-7-yl)pyrrolidin-3-yl)methyl) acetamide] | 0.5 (≈ 1.03 µM) | 0.13 (≈ 0.267 µM) | 60
8 | COc1c(N2CC[C@H](CN)C2)c(F)cc2c(=O)c3c(O)c(C(C)=O)sc3n(C3CC3)c12 [Compound 13, (R)-2-acetyl-7-(3-(aminomethyl)pyrrolidin-1-yl)-9-cyclopropyl-6-fluoro-3-hydroxy-8-methoxythieno[2,3-b] quinolin-4(9H)-one] | 0.25 (≈ 0.561 µM) | 0.13 (≈ 0.292 µM) | –
9 | COc1c(N2CC[C@@H](CNC(C)=O)C2)c(F)cc2c(=O)c3c(n(C4CC4)c12)SCC3=O [Compound 14, (S)-N-((1-(9-cyclopropyl-6-fluoro-8-methoxy-3,4-dioxo-2,3,4,9-tetrahydrothieno [2,3-b]quinolin-7-yl)pyrrolidin-3-yl)methyl) acetamide] | > 64 | 32 (≈ 71.8 µM) | –
10 | COc1c(N2CC[C@@H](CNC(=O)CN)C2)c(F)cc2c(=O)c3c(O)c(C(C)=O)sc3n(C3CC3)c12 [Compound 15, (S)-N-((1-(2-acetyl-9-cyclopropyl-6-fluoro-3-hydroxy-8-methoxy-4-oxo-4,9-dihydrothieno [2,3-b]quinolin-7-yl)pyrrolidin-3-yl)methyl)-2-aminoacetamide] | 1 (≈ 1.99 µM) | 0.5 (≈ 0.995 µM) | –
11 | COc1c(N2CC[C@@H](CNS(=O)(=O)c3cc(F)ccc3C)C2)c(F)cc2c(=O)c3c(O)c(C(C)=O)sc3n(C3CC3)c12 [Compound 16, (R)-N-((1-(2-acetyl-9-cyclopropyl-6-fluoro-3-hydroxy-8-methoxy-4-oxo-4,9-dihydrothieno [2,3-b]quinolin-7-yl)pyrrolidin-3-yl)methyl)-5-fluoro-2-methylbenzenesulfonamide] | > 64 | 32 (≈ 51.8 µM) | –
12 | COc1c(N2CC[C@@H](CNS(=O)(=O)c3cc(F)ccc3C)C2)c(F)cc2c(=O)c3c(OS(=O)(=O)c4cc(F)ccc4C)c(C(C)=O)sc3n(C3CC3)c12 [Compound 17, (R)-2-acetyl--cyclopropyl-6-fluoro-7-(3-((5-fluoro-2-methylphenylsulfonamido)methyl)pyrrolidin-1-yl)-8-methoxy-4-oxo-4,9-dihydrothieno[2,3-b] quinolin-3-yl 5-fluoro-2-methylbenzenesulfonate] | > 64 | > 64 | –
13 | COc1c(N2CC[C@H](NC(C)=O)C2)c(F)cc2c(=O)c3c(O)c(C(C)=O)sc3n(C3CC3)c12 [Compound 18, (S)-N-(1-(2-acetyl-9-cyclopropyl-6-fluoro-3-hydroxy-8-methoxy-4-oxo-4,9-dihydrothieno [2,3-b]quinolin-7-yl)pyrrolidin-3-yl)acetamide] | 1 (≈ 2.11 µM) | 0.25 (≈ 0.528 µM) | –
14 | COc1c(N2CC[C@@H]([C@H](C)NC(C)=O)C2)c(F)cc2c(=O)c3c(O)c(C(C)=O)sc3n(C3CC3)c12 [Compound 19, N-((S)-1-((R)-1-(2-acetyl-9-cyclopropyl-6-fluoro-3-hydroxy-8-methoxy-4-oxo-4,9-dihydrothieno[2,3-b]quinolin-7-yl)pyrrolidin-3-yl)ethyl) acetamide] | 0.5 (≈ 0.997 µM) | 0.25 (≈ 0.498 µM) | –
15 | COc1c(N2CC[C@@H]([C@H](C)N)C2)c(F)cc2c(=O)c3c(n(C4CC4)c12)SCC3=O [Compound 20, 7-((R)-3-((S)-1-aminoethyl)pyrrolidin-1-yl)-9-cyclopropyl-6-fluoro-8-methoxythieno[2,3-b] quinoline-3,4(2H,9H)-dione] | 16 (≈ 38.3 µM) | 4 (≈ 9.58 µM) | –
16 | COc1c(N2CC[C@@H]([C@@H](C)N)C2)c(F)cc2c(=O)c3c(O)c(C(C)=O)sc3n(C3CC3)c12 [Compound 21, 2-acetyl-7-((R)-3-((R)-1-aminoethyl)pyrrolidin-1-yl)-9-cyclopropyl-6-fluoro-3-hydroxy-8-methoxythieno[2,3-b] quinolin-4(9H)-one] | 1 (≈ 2.18 µM) | 0.13 (≈ 0.283 µM) | –
17 | COc1c(N2CC[C@@H]([C@H](C)NC(=O)OC(C)(C)C)C2)c(F)cc2c(=O)c3c(O)c(C(C)=O)sc3n(C3CC3)c12 [Compound 22, tert-butyl ((S)-1-((R)-1-(2-acetyl-9-cyclopropyl-6-fluoro-3-hydroxy-8-methoxy-4-oxo-4,9-dihydrothieno[2,3-b]quinolin-7-yl)pyrrolidin-3-yl)ethyl)carbamate] | > 64 | > 64 | –
